The structures appear in SMILES notation.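 Interpolation was linear, between the two tested concentrations surrounding the appropriate level; five concentrations were tested over 48 hours in 96-well plates. Here, GI50 denotes the concentration required for 50% inhibition of growth. TGI: total growth inhibition.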

Among the test systems are HOP-62 NSCLC; OVCAR-3 ovarian; CCRF-CEM leukemia; NCI-H226 lung; ACHN renal; MOLT-4 leukemia; HOP-92 NSCLC; 786-0 renal; SF-539 CNS; HL-60(TB) leukemia.
Holding throughout (assay): NCI-60 cell line screen, 48 h

On to `CCOC(=O)/C=C/C(C(=O)/C=C/c1ccc(O)c(OC)c1)=C(O)\C=C\c1ccc(O)c(OC)c1`, for which the GI50 was 3.19 µM with HOP-62 NSCLC; 3.39 µM in the experiment with OVCAR-3 ovarian; 3.62 µM in the experiment with CCRF-CEM leukemia; 1.67 µM in the experiment with NCI-H226 lung; 2.36 µM in the experiment on ACHN renal; 4.27 µM with MOLT-4 leukemia. Besides, the GI50 in the experiment with HOP-92 NSCLC is 10.5 µM; in the experiment with 786-0 renal, 1.98 µM. Further, the TGI with HOP-62 NSCLC is 16.1 µM; in the experiment on OVCAR-3 ovarian it was 12.3 µM; with CCRF-CEM leukemia, > 100 µM; with NCI-H226 lung, 5.1 µM; with ACHN renal, 6.25 µM; in the experiment with MOLT-4 leukemia, > 100 µM. Moreover, the TGI is 30.1 µM with HOP-92 NSCLC and 6.68 µM in the experiment on 786-0 renal.
Turning to `C=C1C(=O)O[C@H]2[C@H]1CC/C(COC(=O)NCCc1c[nH]c3ccc(OC)cc13)=C\CC[C@@]1(C)O[C@@H]21`, the GI50 with HOP-62 NSCLC is 3.49 µM; in the experiment with OVCAR-3 ovarian, 1.44 µM; in the experiment on CCRF-CEM leukemia, 0.64 µM; in the experiment with NCI-H226 lung it was 1.88 µM; in the experiment with ACHN renal, 1.38 µM; in the experiment on MOLT-4 leukemia, 2.22 µM. The values for the GI50 in the experiment with HOP-92 NSCLC, in the experiment on SF-539 CNS and with 786-0 renal were 1.19 µM, 1.78 µM and 1.46 µM, respectively. Further, the TGI in the experiment with HOP-62 NSCLC was 15.7 µM; in the experiment on OVCAR-3 ovarian, 3.92 µM; in the experiment on CCRF-CEM leukemia, 4.36 µM; with NCI-H226 lung, 3.61 µM; with ACHN renal, 2.72 µM; in the experiment with MOLT-4 leukemia it was 5.88 µM. The figures for the TGI in the experiment on HOP-92 NSCLC, in the experiment with SF-539 CNS and in the experiment on 786-0 renal were 2.87 µM, 4.01 µM and 3.47 µM, respectively.
Turning to `CN1CCN(Cc2ccc(NC(=O)c3ccc(C#Cc4c(N)ncc5ccc(F)cc45)cc3)cc2C(F)(F)F)CC1`, the GI50 with HL-60(TB) leukemia is 0.935 µM; with HOP-62 NSCLC it was 0.883 µM; with OVCAR-3 ovarian, 1.4 µM; in the experiment on NCI-H226 lung it was 1.07 µM; in the experiment on ACHN renal, 0.97 µM; with MOLT-4 leukemia it was 0.799 µM. The GI50 is 0.705 µM in the experiment with HOP-92 NSCLC and 0.924 µM in the experiment with 786-0 renal. In addition, the TGI in the experiment with HL-60(TB) leukemia was found to be 2.62 µM; in the experiment on HOP-62 NSCLC, 1.59 µM; in the experiment on OVCAR-3 ovarian, 3.68 µM; in the experiment on NCI-H226 lung it was 2.6 µM; with ACHN renal, 1.71 µM; in the experiment on MOLT-4 leukemia, 1.74 µM. In addition, the TGI with HOP-92 NSCLC was 1.45 µM; in the experiment on SF-539 CNS, 1.78 µM; in the experiment on 786-0 renal, 1.73 µM.
For `O=Nc1ccc2ccccc2c1O`, the GI50 with OVCAR-3 ovarian was 1.9 µM; in the experiment on NCI-H226 lung, 12.4 µM; in the experiment on ACHN renal, 5.5 µM; in the experiment with HOP-92 NSCLC, 13.4 µM; in the experiment on SF-539 CNS, 20.8 µM; in the experiment with 786-0 renal, 18.4 µM. Further, the TGI with OVCAR-3 ovarian amounted to 5.01 µM; in the experiment on NCI-H226 lung it was 29.1 µM; with ACHN renal, 18.4 µM; with HOP-92 NSCLC, 27.3 µM; in the experiment on SF-539 CNS it was 37.2 µM; in the experiment on 786-0 renal, 32.8 µM.
On to `COc1ccccc1C#Cc1ccccc1C#CCCCCCC#Cc1ccccc1C#Cc1ccccc1OC`, for which the GI50 in the experiment with HOP-62 NSCLC was > 100 µM; with OVCAR-3 ovarian, 93.5 µM; with CCRF-CEM leukemia, 65.4 µM; in the experiment on NCI-H226 lung, > 100 µM; in the experiment with ACHN renal it was > 100 µM; in the experiment on MOLT-4 leukemia, > 100 µM. For the same compound, the GI50 in the experiment with SF-539 CNS and in the experiment with 786-0 renal was > 100 µM each time. In addition, the TGI in the experiment on HOP-62 NSCLC, in the experiment with OVCAR-3 ovarian, with CCRF-CEM leukemia, in the experiment with NCI-H226 lung, in the experiment with ACHN renal and in the experiment on MOLT-4 leukemia was > 100 µM in each case. For the same compound, the TGI in the experiment with SF-539 CNS and in the experiment on 786-0 renal was > 100 µM each time.
With `CC(=O)OC1(C)C(=O)OC1(C)C(C)=O` (centres undefined), the TGI with HL-60(TB) leukemia, in the experiment with OVCAR-3 ovarian, in the experiment with CCRF-CEM leukemia, in the experiment on NCI-H226 lung, with ACHN renal and in the experiment with MOLT-4 leukemia was > 100 µM throughout. For the same compound, the TGI in the experiment on HOP-92 NSCLC, in the experiment with SF-539 CNS and with 786-0 renal was > 100 µM each time.
For the compound `Cc1ccc(SC2=CC(=O)c3nc4ccccc4c4ccnc2c34)cc1`, the GI50 in the experiment with HOP-62 NSCLC is 97.9 µM; in the experiment on OVCAR-3 ovarian it was 23.2 µM; in the experiment on NCI-H226 lung it was > 61.9 µM; in the experiment on ACHN renal, 31 µM; in the experiment on MOLT-4 leukemia it was 42.8 µM; in the experiment on HOP-92 NSCLC, 20 µM. Moreover, the GI50 is 33.9 µM with SF-539 CNS and 24.5 µM with 786-0 renal. Besides, the TGI with HOP-62 NSCLC is > 100 µM; in the experiment with OVCAR-3 ovarian, > 54.7 µM; in the experiment with NCI-H226 lung it was > 100 µM; in the experiment on ACHN renal it was > 100 µM; in the experiment on MOLT-4 leukemia, > 100 µM; in the experiment with HOP-92 NSCLC, 38.2 µM. In addition, the TGI was 83 µM in the experiment with SF-539 CNS and > 58.1 µM with 786-0 renal.
`Cc1cc(NS(=O)(=O)c2ccc(NC(=O)c3cccc4c(Nc5ccc(S(=O)(=O)N=C(N)N)cc5)c5ccccc5nc34)cc2)no1`: the TGI in the experiment with HL-60(TB) leukemia, with HOP-62 NSCLC, with OVCAR-3 ovarian, in the experiment on NCI-H226 lung, with ACHN renal and in the experiment with MOLT-4 leukemia was > 100 µM in each case. Besides, the TGI in the experiment on HOP-92 NSCLC, in the experiment with SF-539 CNS and with 786-0 renal was > 100 µM throughout.
For `O=C(O)c1cc2cc(OCc3ccccc3)c(OCc3ccccc3)cc2[nH]1`, the GI50 is 22.9 µM in the experiment on HL-60(TB) leukemia; 16.4 µM with HOP-62 NSCLC; 17.3 µM with OVCAR-3 ovarian; 33.6 µM with CCRF-CEM leukemia; 17.1 µM in the experiment with NCI-H226 lung; 25.4 µM in the experiment on ACHN renal. Moreover, the GI50 is 25 µM with MOLT-4 leukemia, 19.9 µM with SF-539 CNS and 22.7 µM in the experiment with 786-0 renal. The TGI is > 100 µM in the experiment with HL-60(TB) leukemia; 52.4 µM in the experiment with HOP-62 NSCLC; 31.6 µM in the experiment on OVCAR-3 ovarian; > 100 µM in the experiment on CCRF-CEM leukemia; 35.7 µM with NCI-H226 lung; 90.1 µM in the experiment on ACHN renal. The figures for the TGI with MOLT-4 leukemia, in the experiment on SF-539 CNS and with 786-0 renal were > 100 µM, 44 µM and 48.4 µM, respectively.
For the compound `O=C(OCC1CO1)c1cccs1` (centres undefined), the TGI in the experiment with HL-60(TB) leukemia, with HOP-62 NSCLC, with OVCAR-3 ovarian, in the experiment on CCRF-CEM leukemia, in the experiment with ACHN renal and with MOLT-4 leukemia was > 100 µM in each case. Moreover, the TGI with HOP-92 NSCLC and in the experiment on 786-0 renal was > 100 µM throughout.
